The source made the active and inactive calls.
Experiments:
[1] = biological target: DNA dC->dU-editing enzyme APOBEC-3G (Homo sapiens, UniProt Q9HC16); experiment: Dose Response confirmation of small molecule APOBEC3G DNA Deaminase Inhibitors via a fluorescence-based single-stranded DNA deaminase assay. [Related pubchem assays (depositor defined):AID493012, AID493028]; type: functional
[2] = test system: H9c2; experiment: cells; type: functional, cell-based; details: Rattus norvegicus, H9c2, Myocardium;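 further: confirmatory concentration-response retest of ultra-high-throughput screening hits for modulation of myocardial damage; cell death induced by hydrogen peroxide oxidative stress; compound pretreatment for 60 min then peroxide exposure for 2 h; potency is for protecting the cells against peroxide damage rather than for killing them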
[3] = biological target: Glucose-6-phosphate 1-dehydrogenase (Homo sapiens, UniProt P11413); experiment: human G6PD enzyme inhibitors, dose response, selectivity assay for P. falciparum G6PD inhibitor project, biochemical, fluorescence (AID 504792); type: functional
Chain of Glucose-6-phosphate 1-dehydrogenase (P11413 whole entry): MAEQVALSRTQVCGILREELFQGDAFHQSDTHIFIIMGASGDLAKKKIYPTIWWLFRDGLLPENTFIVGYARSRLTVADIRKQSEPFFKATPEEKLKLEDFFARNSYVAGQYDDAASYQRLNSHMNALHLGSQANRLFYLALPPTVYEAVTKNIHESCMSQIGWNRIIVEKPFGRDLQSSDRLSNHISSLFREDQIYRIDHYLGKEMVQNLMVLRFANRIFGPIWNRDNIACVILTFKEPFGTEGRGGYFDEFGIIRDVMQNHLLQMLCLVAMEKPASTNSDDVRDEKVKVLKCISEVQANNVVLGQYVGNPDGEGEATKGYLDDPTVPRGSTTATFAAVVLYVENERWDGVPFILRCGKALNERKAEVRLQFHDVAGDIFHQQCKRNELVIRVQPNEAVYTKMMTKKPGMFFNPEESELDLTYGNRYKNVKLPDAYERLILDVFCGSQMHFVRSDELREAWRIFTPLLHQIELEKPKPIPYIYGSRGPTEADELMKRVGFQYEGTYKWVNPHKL

[4] = microbe, parasite or virus in culture; type: functional; details: Mycobacterium tuberculosis
[5] = biological target: Induced myeloid leukemia cell differentiation protein Mcl-1 (Homo sapiens, UniProt Q07820); type: functional
Chain of Induced myeloid leukemia cell differentiation protein Mcl-1 (Q07820 whole entry): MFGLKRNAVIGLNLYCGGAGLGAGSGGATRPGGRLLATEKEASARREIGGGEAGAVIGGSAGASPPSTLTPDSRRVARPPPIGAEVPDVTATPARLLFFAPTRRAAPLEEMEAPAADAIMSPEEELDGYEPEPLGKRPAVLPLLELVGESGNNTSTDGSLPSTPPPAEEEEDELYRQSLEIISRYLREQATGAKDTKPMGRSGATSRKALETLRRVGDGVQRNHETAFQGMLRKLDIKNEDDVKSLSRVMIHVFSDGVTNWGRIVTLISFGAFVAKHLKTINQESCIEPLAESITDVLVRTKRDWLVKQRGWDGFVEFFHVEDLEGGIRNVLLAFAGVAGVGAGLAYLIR

[6] = Luminescence Cell-Based Dose Response HTS to Identify Inhibitors of 5'UTR Stem-Loop Driven Prion Protein mRNA Translation in H4 Neuroglioblastoma Cells. [Related pubchem assays: 1827 (Project Summary), 1813 (Primary HTS)]; type: functional
[7] = inhibitors of SNCA 5'UTR-driven reporter translation, confirmation, H4 neuroglioma cells, luminescence (AID 1988); type: functional, cell-based
[8] = inhibitors of firefly luciferase expression or activity, dose response, H4 neuroglioma cells, luminescence (AID 1990); type: functional, cell-based
[9] = Luminescence Cell-Based Dose Retest to Confirm Inhibitors of Cancer Stem Cells. [Related pubchem assays (depositor defined):AID2717, AID2721]; type: functional; details: Homo sapiens
[10] = HEp-2 cell cytotoxicity, dose response, cytotoxicity control for RSV inhibitor project, HTS (AID 2410); type: functional; details: human respiratory syncytial virus
[11] = biological target: Cytochrome P450 3A4 (Homo sapiens, UniProt P08684);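 further: CYP3A4 tested as one member of a cytochrome P450 panel screen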
Chain of Cytochrome P450 3A4 (P08684 whole entry): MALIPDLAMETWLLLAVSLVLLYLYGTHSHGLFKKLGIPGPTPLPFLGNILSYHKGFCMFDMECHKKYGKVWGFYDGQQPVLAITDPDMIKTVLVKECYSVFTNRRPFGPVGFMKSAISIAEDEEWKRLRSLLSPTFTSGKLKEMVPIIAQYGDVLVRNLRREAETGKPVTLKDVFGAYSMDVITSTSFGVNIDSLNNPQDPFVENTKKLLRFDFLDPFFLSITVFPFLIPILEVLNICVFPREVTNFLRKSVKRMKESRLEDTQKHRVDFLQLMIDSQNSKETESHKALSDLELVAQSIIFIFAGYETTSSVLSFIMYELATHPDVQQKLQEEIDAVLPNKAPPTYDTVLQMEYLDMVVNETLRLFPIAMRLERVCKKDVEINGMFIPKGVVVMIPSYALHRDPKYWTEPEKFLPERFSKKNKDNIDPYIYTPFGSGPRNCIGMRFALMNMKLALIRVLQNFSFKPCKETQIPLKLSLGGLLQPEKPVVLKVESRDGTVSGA

[12] = biological target: FAD-linked sulfhydryl oxidase ALR (Homo sapiens, UniProt P55789); experiment: inhibitors of human ALR sulfhydryl oxidase, dose response, biochemical, H2O2 detection, luminescence, cherry-pick (AID 493248)
Chain of FAD-linked sulfhydryl oxidase ALR (P55789 whole entry): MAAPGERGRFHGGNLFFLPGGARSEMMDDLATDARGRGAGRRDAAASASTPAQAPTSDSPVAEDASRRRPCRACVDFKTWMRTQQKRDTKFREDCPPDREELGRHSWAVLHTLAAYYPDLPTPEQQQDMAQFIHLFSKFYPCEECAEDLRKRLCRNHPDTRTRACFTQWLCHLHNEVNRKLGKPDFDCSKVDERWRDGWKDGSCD

[13] = biological target: Peroxisome proliferator-activated receptor gamma/Nuclear receptor coactivator 1 (Homo sapiens, UniProt P37231); experiment: (§1) TR-FRET dose response biochemical High Throughput Screening assay for agonists of the steroid receptor coactivator 1 (SRC-1) recruitment by the peroxisome proliferator-activated receptor gamma (PPAR gamma): non-selective agonists. [Related pubchem assays (depositor defined):AID1300, AID1808, AID504735, AID631]; type: protein assay
Chain of Peroxisome proliferator-activated receptor gamma/Nuclear receptor coactivator 1 (P37231 whole entry): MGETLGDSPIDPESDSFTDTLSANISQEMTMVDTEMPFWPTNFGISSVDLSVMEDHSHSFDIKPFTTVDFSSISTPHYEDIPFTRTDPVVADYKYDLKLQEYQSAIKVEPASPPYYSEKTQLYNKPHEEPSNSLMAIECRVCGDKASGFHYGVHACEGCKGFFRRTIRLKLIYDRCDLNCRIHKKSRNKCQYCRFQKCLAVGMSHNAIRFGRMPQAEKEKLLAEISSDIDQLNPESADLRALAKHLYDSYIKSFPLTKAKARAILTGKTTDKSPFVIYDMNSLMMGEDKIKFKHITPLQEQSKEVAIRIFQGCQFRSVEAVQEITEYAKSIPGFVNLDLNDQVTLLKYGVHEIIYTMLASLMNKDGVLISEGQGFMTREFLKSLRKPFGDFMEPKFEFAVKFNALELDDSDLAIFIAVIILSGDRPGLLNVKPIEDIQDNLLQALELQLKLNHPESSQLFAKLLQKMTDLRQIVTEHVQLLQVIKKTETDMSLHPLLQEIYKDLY
Chain of Peroxisome proliferator-activated receptor gamma/Nuclear receptor coactivator 1 (Q15788 whole entry, further chain): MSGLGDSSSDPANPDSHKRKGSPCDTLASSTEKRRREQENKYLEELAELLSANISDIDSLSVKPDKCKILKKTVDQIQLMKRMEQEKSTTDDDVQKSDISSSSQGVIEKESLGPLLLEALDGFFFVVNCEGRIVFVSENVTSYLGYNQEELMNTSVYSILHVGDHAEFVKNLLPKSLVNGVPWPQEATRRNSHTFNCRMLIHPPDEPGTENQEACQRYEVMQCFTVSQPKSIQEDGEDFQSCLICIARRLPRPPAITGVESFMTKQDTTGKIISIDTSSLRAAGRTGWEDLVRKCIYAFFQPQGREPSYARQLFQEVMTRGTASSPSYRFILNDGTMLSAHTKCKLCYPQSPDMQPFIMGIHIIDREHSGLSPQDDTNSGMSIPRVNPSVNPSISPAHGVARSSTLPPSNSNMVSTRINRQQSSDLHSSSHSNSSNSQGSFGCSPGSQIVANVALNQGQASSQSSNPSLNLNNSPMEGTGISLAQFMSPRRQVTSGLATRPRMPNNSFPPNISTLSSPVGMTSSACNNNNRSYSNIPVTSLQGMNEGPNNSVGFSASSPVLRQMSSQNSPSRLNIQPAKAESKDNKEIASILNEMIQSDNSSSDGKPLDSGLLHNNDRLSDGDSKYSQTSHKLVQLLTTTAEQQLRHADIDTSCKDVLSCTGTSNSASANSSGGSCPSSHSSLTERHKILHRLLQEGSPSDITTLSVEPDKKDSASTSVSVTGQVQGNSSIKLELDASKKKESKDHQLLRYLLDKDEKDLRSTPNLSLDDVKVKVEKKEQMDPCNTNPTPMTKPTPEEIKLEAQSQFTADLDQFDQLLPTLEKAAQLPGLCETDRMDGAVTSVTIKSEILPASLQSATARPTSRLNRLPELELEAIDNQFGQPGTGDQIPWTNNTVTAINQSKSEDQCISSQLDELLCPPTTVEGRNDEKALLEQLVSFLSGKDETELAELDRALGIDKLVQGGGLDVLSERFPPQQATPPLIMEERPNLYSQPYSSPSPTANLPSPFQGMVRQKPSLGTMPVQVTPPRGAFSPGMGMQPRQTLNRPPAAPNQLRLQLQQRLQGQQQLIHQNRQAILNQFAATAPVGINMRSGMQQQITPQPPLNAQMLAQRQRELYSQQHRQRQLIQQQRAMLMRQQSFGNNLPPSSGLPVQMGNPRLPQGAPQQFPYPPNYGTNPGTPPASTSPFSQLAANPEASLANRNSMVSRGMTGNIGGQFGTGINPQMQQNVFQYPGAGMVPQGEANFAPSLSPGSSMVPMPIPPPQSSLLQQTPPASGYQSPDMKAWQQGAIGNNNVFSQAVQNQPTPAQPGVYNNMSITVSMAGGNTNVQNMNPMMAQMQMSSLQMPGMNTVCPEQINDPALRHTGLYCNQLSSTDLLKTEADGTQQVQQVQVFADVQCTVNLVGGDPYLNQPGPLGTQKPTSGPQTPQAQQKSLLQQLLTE

[14] = biological target: Peroxisome proliferator-activated receptor gamma/Nuclear receptor coactivator 3 (Homo sapiens, UniProt P37231); experiment: as §1, with “3 (SRC-3)” for “1 (SRC-1)”, “assays: 1301 (Confirmation screen.), 1048 (Primary screen.)]” for “assays (depositor defined):AID1300, AID1808, AID504735, AID631]”; type: functional
[15] = biological target: Peroxisome proliferator-activated receptor gamma/Nuclear receptor coactivator 2 (Homo sapiens, UniProt P37231); experiment: TR-FRET dose response biochemical High Throughput Screening assay for agonists of the steroid receptor coactivator 2 (SRC-2) recruitment by the peroxisome proliferator-activated receptor gamma (PPAR gamma): non-selective agonists. [Related pubchem assays: 1297, 1032 ]; type: functional
[16] = biological target: T1, Rac GTPase-activating protein 1 (Homo sapiens, UniProt Q9H0H5); experiment: MgcRacGAP GTPase-activating activity inhibitors, confirmation, biochemical, ADP Hunter fluorescence, primary and confirmatory (AID 624330); type: functional
T1 sequence (Q9H0H5 whole entry): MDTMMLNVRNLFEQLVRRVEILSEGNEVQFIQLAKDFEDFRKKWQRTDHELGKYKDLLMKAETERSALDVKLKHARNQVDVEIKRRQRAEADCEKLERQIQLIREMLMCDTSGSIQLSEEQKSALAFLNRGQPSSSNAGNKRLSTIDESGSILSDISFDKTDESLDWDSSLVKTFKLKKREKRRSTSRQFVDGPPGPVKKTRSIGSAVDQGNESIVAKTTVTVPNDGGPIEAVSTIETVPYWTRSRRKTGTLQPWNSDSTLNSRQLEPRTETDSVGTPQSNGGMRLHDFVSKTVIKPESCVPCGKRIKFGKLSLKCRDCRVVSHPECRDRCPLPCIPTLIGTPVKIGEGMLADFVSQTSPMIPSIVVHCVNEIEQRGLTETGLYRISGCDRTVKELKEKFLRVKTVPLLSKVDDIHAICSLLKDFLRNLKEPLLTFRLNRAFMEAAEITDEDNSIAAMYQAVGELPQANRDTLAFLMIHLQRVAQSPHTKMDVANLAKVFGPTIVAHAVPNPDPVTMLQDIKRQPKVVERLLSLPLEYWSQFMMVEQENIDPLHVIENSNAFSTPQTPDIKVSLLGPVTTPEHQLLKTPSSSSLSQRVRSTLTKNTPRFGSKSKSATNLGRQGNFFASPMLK

[17] = cytotoxicity toward NIH3T3 fibroblasts, dose response, counter-screen, cell-based, ATP luminescence, mouse fibroblasts (AID 2010); type: functional;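 further: cells exposed to compound for about 90 hours before reading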
[18] = inhibitors of intracellular T. cruzi replication, confirmation, NIH3T3 host cells, beta-gal luminescence (AID 2044); type: functional, cell-based;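 further: intracellular parasites grown in NIH/3T3 mouse fibroblasts as host cells; luminescent beta-galactosidase reporter signal from transgenic T. cruzi replicating inside host cells; inhibitors lower the luminescence signal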
[19] = cytotoxicity toward DRD oncogenic fibroblasts, dose response, cell-based, non-viral oncogenic, luminescence (AID 1934); type: functional; details: Homo sapiens
[20] = test system: BJ; experiment: cells; type: functional, cell-based; details: Homo sapiens
[21] = test system: BJ; experiment: cytotoxicity toward BJ-TERT-LT-ST fibroblasts, dose response, cell-based, RAS-independent, luminescence (AID 1935); type: functional; details: Homo sapiens;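 further: BJ fibroblasts immortalized with TERT plus LT and ST oncogenes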
[22] = test system: BJ; experiment: cytotoxicity toward BJ-TERT fibroblasts, dose response, cell-based, RAS-independent, luminescence (AID 1933); type: functional; details: Homo sapiens

Chain of DNA dC->dU-editing enzyme APOBEC-3G (Q9HC16 whole entry): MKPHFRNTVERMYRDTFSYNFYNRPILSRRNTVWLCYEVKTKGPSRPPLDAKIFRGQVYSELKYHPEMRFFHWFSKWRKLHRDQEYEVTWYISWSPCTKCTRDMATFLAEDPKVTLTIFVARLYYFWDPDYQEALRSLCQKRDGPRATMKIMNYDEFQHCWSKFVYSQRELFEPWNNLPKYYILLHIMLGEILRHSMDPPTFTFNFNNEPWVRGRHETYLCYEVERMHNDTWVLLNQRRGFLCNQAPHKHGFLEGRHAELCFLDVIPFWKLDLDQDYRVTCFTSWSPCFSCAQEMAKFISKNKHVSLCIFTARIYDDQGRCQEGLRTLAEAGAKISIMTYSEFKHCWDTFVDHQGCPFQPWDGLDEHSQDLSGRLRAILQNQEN

In the case of `CNc1nnc(S)s1`, the IC50 [1] is reported as 17.6 µM (active).
For `CSc1nc2ncc3c(n2n1)CC1c2ccccc2CCN1C3=O` (stereo not given), the IC50 [2] was 15.1 µM (active).
For `Nc1nc(O)nc(O)c1N=Cc1ccccc1`, the IC50 [3] was 63.8 µM (inactive).
For `CCCCCCn1c(SCC(=O)OC)nc2c1c(=O)[nH]c(=O)n2C`, the IC50 [1] was 51.6 µM (active).
For `CCN1CCCC1CNC(=O)c1ccc2c(c1)NC(=O)/C(=C\c1ccccc1Cl)S2` (stereo not given), the IC50 [3] was > 80 µM (inactive).
In the case of `O=S(=O)(NCc1csc(-c2ccccc2)n1)c1ccc(Cl)s1`, the IC50 [3] is reported as > 80 µM (inactive).
In the case of `CCNc1nc(Nc2ccc(C)c(Cl)c2)c2cnn(C)c2n1`, the CC50 [4] is reported as > 40 µM (active).
With `CCN1C(=O)C(C)S/C1=N\S(=O)(=O)c1ccc(F)cc1` (stereo not given) the IC50 [5] was 4.37 µM (not active).
For `Cc1cccc(CN2C(=O)/C(=C\c3ccc(C(=O)NCCCN4CCN(C)CC4)cc3)Oc3ccccc32)c1`, the EC50 [6] was > 120 µM (not active), the EC50 [7] was > 120 µM (not active) and the EC50 [8] was 10.6 µM (active). For the same molecule, the AC50 [9] was 3.6 µM (active).
With `COc1cc(/C=C(\C#N)c2nc3cc(C)ccc3[nH]2)c([N+](=O)[O-])cc1OC` the IC50 [2] was > 79 µM (inactive).
For `COc1cc(NC(=O)c2cc([N+](=O)[O-])ccc2NC(=O)CN2CCN(c3ccccn3)CC2)cc(OC)c1`, the IC50 [2] was 10.8 µM (active).
With `O=C(CCSCCC(=O)NN=Cc1ccccc1)NN=Cc1ccccc1` the IC50 [3] was 55.2 µM (inactive).
For `Cc1cccc2sc(NC(=O)C3c4ccccc4Oc4ccccc43)nc12`, the CC50 [10] was 15.1 µM (active) and the AC50 [9] was 2.83 µM (active).
With `Cc1ccc(S(=O)(=O)NNc2ccccc2)cc1` the AC50 [11] was 28.2 µM (inconclusive), the AC50 [12] was 623 nM (active) and the IC50 [3] was > 80 µM (inactive).
With `O=C(COC(=O)CCc1nc(O)c2ccccc2n1)NCc1ccc(F)cc1` the IC50 [2] was > 79 µM (inactive).
With `CCOC(=O)c1c(NC(=O)COC(=O)c2ccc(O)cc2)sc(C(=O)N(C)C)c1C` the IC50 [2] was > 79 µM (inactive).
With `Cc1ccc(Cl)cc1-c1ccc(/C=N/c2ccc(N3CCOCC3)cc2)o1` the EC50 [13] was 27.9 µM (inactive), the EC50 [14] was > 79.4 µM (not active) and the EC50 [15] was 19.4 µM (not active). The IC50 [16] was 11.2 µM (active).
In the case of `Cn1c(=O)c2c(nc(NCCCO)n2C/C=C/c2ccccc2)n(C)c1=O`, the IC50 [2] is reported as > 79 µM (inactive).
In the case of `CCC(CC)c1nnc(NC(=O)COc2ccc3c(c2)OCO3)s1`, the IC50 [1] is reported as 53.2 µM (active).
With `CCCNC(=O)Cn1sc2nc(C)cc(C)c2c1=O` the EC50 [17] was 9.56 µM (active), the EC50 [18] was 3.08 µM (active) and the IC50 [1] was 5.41 µM (active). The IC50 [3] was 45.5 µM (inactive).
With `C=CCn1c(-c2cc(OC)cc(OC)c2)n[nH]c1=S` the IC50 [1] was 8.23 µM (active).
For `Cc1ccc(NC(=S)N/N=C/c2c(Cl)cccc2Cl)c(C)c1`, the EC50 [19] was 2.58 µM (active), the EC50 [20] was 3.48 µM (inconclusive) and the AC50 [9] was 0.368 µM (active). The EC50 [21] was 3.99 µM (inconclusive) and the EC50 [22] was 2.66 µM (active).
For `CCN(CC(=O)NC1CCCCC1)S(=O)(=O)c1ccc(Cl)cc1`, the AC50 [9] was > 195 µM (inactive).
With `COc1ccc2sc(-c3ccc(SC)cc3)c(C#CC(C)(C)O)c2c1` the AC50 [9] was 2.26 µM (active).

From ChEMBL document CHEMBL1201862, “PubChem BioAssay data set” (2004)
